Data set [1] concerns human pancreatic cancer cells (BxPC3). Nature of the data set: in vivo MRI in orthotopic transplantation model of BxPC3. On the set-up: species or system Nude mice. As to conditions: equal amounts of micelles and free Gd-DTPA. As to the method: Nude mice (female, 6 weeks of age) were laparotomized under inhalation anesthesia, injected with 0.1 ml of human pancreatic cancer cells (BxPC3) under the serous membrane of the pancreas and then kept for 1 month to prepare an orthotopic transplantation model. MRI was imaged with a 4.7 Tesla Superconductive Magnet Unit (Varian, Palo Alto, Calif.) VXR-MRI Console under the following imaging conditions: repetition time (TR): 500 ms, echo time (TE): 15 ms, field of view (FOV): 32 mm×32 mm, matrix size: 256×256, slice thickness: 2 mm to obtain Spin Echo T1w images. The mice were injected under 5% isoflurane inhalation anesthesia and maintained under 1.2% isoflurane anesthesia during imaging. […] Imaging was performed every 5 minutes during the first 1 hour after injection via the tail vein, then every 15 minutes for 4 hours. Moreover, an equal amount of free Gd-DTPA serving as a control was also injected via the tail vein and imaged in the same manner. The resulting images were analyzed by Mathematica (Wolfram Research Inc.) and Excel (Microsoft, Inc.).

The conditions of data set [2]: blood at 1, 4, 8 and 24 hours after tail vein injection of 0.2 ml.
From the text: After collection, the blood was rapidly mixed with heparin to prevent coagulation, and then centrifuged to collect plasma only. The collected plasma was mixed with 90% HNO3, heated and dried, dissolved in 5N HCl, and then diluted appropriately, followed by ICP-MS to determine Gd and Pt contents.
Data set [3] has as its system human pancreatic cancer cells (BxPC3). Nature of the data set: antitumor effect (tumor size) on subcutaneous BxPC3 tumor. Type of data set: in vivo, Nude mice. As to conditions: Pt 8 mg/ml.

“Also recorded” adds a separate entry of the source.

Turning to `O=C([O-])CN(CCN(CC(=O)[O-])CC(=O)O)CCN(CC(=O)[O-])CC(=O)O.[Gd+3]` [Gd-DTPA, gadolinium diethylene triamine pentaacetic acid], the “contrast enhancement / intensity in tumor” value in data set [1] was “little contrast enhancement; also recorded: little increase in intensity”. Also, the “residual drug content in plasma / retention in blood” value in data set [2] is recorded as “rapidly disappear from plasma”.

For the molecule `O=C1[O][Pt]2([NH][C@@H]3CCCC[C@H]3[NH]2)[O]C1=O` [oxaliplatin], the “antitumor effect (tumor size), words” value in data set [3] (0.2 ml i.v. on day 0, 2 and 4) is “substantially the same tendency as the control”; in data set [3] (0.2 ml i.v. on day 0, 2 and 4, listed as Oxaliplatin), “little therapeutic effect”. In data set [2], the “residual drug content in plasma / retention in blood” value is “rapidly disappear from plasma”.

(Values after patent US8961949B2, “Polymer-metal complex composite having MRI contrast ability and MRI contrasting and/or antitumor composition using the same” (Japan Science and Technology Agency, priority 2008, dated 2015).)
